Biological target: Eukaryotic translation initiation factor 4E (Homo sapiens, UniProt P06730)
Assay: Inhibitory concentration against 7-methyl-GTP binding to eukaryotic translation initiation factor 4E

Chain of Eukaryotic translation initiation factor 4E (P06730 whole entry): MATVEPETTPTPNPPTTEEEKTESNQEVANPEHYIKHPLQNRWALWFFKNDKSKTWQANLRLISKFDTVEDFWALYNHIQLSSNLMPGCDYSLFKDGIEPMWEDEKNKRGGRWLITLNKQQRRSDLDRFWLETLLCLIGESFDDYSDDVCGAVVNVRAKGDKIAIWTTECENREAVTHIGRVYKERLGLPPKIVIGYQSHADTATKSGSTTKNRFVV

| IC50 | Structure (SMILES) |
| --- | --- |
| > 400 µM | CN1CN(C2O[C@H](CO)[C@@H](O)[C@H]2O)c2nc(N)[nH]c(=S)c21 (some centres not stated) |
| > 400 µM | CN1CN(C2O[C@H](CO)[C@@H](O)[C@H]2O)C2=NC=NC(O)C21 (some centres not stated) |

Reference: BindingDB's records for doi:10.1016/j.bmcl.2005.01.080 (University of Minnesota, 2005)
